Results taken from patent US10988477B2 (Merck Patent GmbH, priority 2018, dated 2021).

Target: GCN2 kinase (Homo sapiens, UniProt Q9P2K8)
Assay: GCN2 enzyme inhibition assay (Transcreener ADP2 fluorescence polarization)
Format: biochemical
Settings: Enzyme activity for compounds of Formula IV; Ki(app), 280 μM ATP, 25° C.
Outline: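 Human GCN2 (4 nM) preincubated 10 min with compound (0–8 μM) and 200 μM (RS)7 peptide in Tris-HCl pH 7.5, NaCl, MgCl2, DTT. Reaction started with 280 μM ATP, run 1 h at 25 °C. ADP detected by Transcreener fluorescence polarization. IC50 and Ki(app) fitted by tight-binding algorithm.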

Sequence of GCN2 kinase (Q9P2K8 whole entry): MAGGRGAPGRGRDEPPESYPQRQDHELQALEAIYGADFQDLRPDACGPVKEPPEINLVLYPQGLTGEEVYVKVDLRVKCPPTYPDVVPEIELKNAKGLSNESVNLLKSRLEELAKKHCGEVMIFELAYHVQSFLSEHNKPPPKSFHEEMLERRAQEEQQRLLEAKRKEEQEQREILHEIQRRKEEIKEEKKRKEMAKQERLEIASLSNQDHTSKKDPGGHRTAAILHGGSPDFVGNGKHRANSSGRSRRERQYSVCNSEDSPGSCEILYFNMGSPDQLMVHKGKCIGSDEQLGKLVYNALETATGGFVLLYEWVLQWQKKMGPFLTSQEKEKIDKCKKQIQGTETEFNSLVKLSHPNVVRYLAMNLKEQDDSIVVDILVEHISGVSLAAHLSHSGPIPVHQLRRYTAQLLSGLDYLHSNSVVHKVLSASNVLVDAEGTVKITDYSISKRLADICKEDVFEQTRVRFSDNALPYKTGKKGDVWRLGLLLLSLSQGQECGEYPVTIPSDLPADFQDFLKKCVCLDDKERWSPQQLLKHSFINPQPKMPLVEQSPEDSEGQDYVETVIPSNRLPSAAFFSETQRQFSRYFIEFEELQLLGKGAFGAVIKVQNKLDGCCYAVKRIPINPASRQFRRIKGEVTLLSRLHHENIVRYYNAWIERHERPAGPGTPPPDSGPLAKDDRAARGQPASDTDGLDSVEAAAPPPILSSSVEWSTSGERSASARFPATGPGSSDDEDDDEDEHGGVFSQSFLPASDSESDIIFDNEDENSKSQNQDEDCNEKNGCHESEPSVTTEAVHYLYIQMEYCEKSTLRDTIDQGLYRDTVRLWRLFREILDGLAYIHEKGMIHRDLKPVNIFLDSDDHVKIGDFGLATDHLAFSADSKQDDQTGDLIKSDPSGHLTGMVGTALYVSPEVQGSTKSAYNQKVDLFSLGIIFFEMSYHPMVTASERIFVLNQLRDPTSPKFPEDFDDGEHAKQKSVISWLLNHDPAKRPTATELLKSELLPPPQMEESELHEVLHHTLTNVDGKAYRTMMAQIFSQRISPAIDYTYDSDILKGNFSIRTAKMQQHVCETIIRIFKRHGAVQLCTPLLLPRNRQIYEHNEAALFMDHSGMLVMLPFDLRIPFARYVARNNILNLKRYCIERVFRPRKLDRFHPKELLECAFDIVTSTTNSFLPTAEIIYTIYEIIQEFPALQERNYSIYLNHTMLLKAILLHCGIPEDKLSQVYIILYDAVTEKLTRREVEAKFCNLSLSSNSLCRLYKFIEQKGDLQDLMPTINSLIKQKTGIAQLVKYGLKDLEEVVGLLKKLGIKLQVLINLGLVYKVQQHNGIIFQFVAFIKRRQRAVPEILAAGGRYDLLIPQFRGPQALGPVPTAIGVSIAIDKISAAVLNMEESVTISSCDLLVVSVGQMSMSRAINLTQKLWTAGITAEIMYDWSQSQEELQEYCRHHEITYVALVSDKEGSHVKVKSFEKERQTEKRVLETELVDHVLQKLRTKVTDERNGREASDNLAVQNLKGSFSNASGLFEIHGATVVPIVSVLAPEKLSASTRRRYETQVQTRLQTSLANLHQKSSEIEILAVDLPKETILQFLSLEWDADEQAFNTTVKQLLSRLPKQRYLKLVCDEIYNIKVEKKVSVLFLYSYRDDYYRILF

`C[C@H]1CN(c2cccc(-c3cnc4cnc(C(F)F)cn34)n2)C[C@@H](CNS(C)(=O)=O)C1(F)F` (single isomer, unassigned) [IV-275] and `CC(=O)N1CCN(c2cccc(-c3cnc4cnc(C(F)(F)F)cn34)n2)CC1` [IV-259, 1-(4-(6-(6-(Trifluoromethyl)imidazo[1,2-a]pyrazin-3-yl)pyridin-2-yl)piperazin-1-yl)ethan-1-one] fall in the same range of Ki: 100 to 1000 nM for the first, 100 to 1000 nM for the second.

Compared with `CSCC1CCN(c2ccnc(-c3cnc4cnc(C(F)(F)F)cn34)n2)C1` (centres unmarked) [IV-594, 3-(4-(3-((Methylthio)methyl)pyrrolidin-1-yl)pyrimidin-2-yl)-6-(trifluoromethyl)imidazo[1,2-a]pyrazine], `CS(=N)(=O)CC1CCN(c2ccnc(-c3cnc4cnc(C(F)(F)F)cn34)n2)C1` (centres unmarked) [IV-607, Imino(methyl)((1-(2-(6-(trifluoromethyl)imidazo[1,2-a]pyrazin-3-yl)pyrimidin-4-yl)pyrrolidin-3-yl)methyl)-λ^6-sulfanone] is higher in Ki: 10 to 100 nM for the first, 100 to 1000 nM for the second.

`Nc1cnn(C2CCN(c3ccnc(-c4cnc5cnc(C(F)(F)F)cn45)n3)C2)c1` (centres unmarked) [IV-478, 1-(1-(2-(6-(Trifluoromethyl)imidazo[1,2-a]pyrazin-3-yl)pyrimidin-4-yl)pyrrolidin-3-yl)-1H-pyrazol-4-amine] and `FC(F)(F)c1cn2c(-c3nccc(N4CCC(c5ccccc5)C4)n3)cnc2cn1` (centres unmarked) [IV-556, 3-(4-(3-Phenylpyrrolidin-1-yl)pyrimidin-2-yl)-6-(trifluoromethyl)imidazo[1,2-a]pyrazine] fall in the same range of Ki: 100 to 1000 nM for the first, 100 to 1000 nM for the second.

`N#CCCN1CCN(c2ccnc(-c3cnc4cnc(C(F)(F)F)cn34)n2)CC1` [IV-620, 3-(4-(2-(6-(Trifluoromethyl)imidazo[1,2-a]pyrazin-3-yl)pyrimidin-4-yl)piperazin-1-yl)propanenitrile] and `O=C(CO)N1CCN(c2ccnc(-c3cnc4cnc(C(F)(F)F)cn34)n2)CC1` [IV-618, 2-Hydroxy-1-(4-(2-(6-(trifluoromethyl)imidazo[1,2-a]pyrazin-3-yl)pyrimidin-4-yl)piperazin-1-yl)ethan-1-one] fall in the same range of Ki: 100 to 1000 nM for the first, 100 to 1000 nM for the second.

`FC(F)(F)c1cn2c(-c3nccc(N4CCC5(CCOCC5)C4)n3)cnc2cn1` [IV-522, 2-(2-(6-(Trifluoromethyl)imidazo[1,2-a]pyrazin-3-yl)pyrimidin-4-yl)-8-oxa-2-azaspiro[4.5]decane] and `CS(=O)(=O)N1CCC2(CC1)CN(c1ccnc(-c3cnc4cnc(C(F)(F)F)cn34)n1)C2` [IV-698, 3-(4-(7-(Methylsulfonyl)-2,7-diazaspiro[3.5]nonan-2-yl)pyrimidin-2-yl)-6-(trifluoromethyl)imidazo[1,2-a]pyrazine] fall in the same range of Ki: 100 to 1000 nM for the first, 100 to 1000 nM for the second.

Compared with `C[C@@H]1[C@H](c2cn[nH]c2)N(c2ccnc(-c3cnc4cnc(Br)cn34)n2)CCN1C` (relative stereo) [IV-393, Cis-6-Bromo-3-(4-(3,4-dimethyl-2-(1H-pyrazol-4-yl)piperazin-1-yl)pyrimidin-2-yl)imidazo[1,2-a]pyrazine], `CC1C(c2cn[nH]c2)OCCN1c1ccnc(-c2cnc3cnc(Br)cn23)n1` (single isomer, unassigned) [IV-329, 4-(2-(6-Bromoimidazo[1,2-a]pyrazin-3-yl)pyrimidin-4-yl)-3-methyl-2-(1H-pyrazol-4-yl)morpholine] is lower in Ki: 100 to 1000 nM for the first, 10 to 100 nM for the second. The second binds more tightly here.

Compared with `CC(=O)N1CCN(c2ccnc(-c3cnc4cnc(-c5ccccc5C#N)cn34)n2)CC1` [IV-301, 2-(3-(4-(4-Acetylpiperazin-1-yl)pyrimidin-2-yl)imidazo[1,2-a]pyrazin-6-yl)benzonitrile], `CC(=O)N1CCN(c2ccnc(-c3cnc4cnc(-c5ccncc5)cn34)n2)CC1` [IV-285, 1-(4-(2-(6-(Pyridin-4-yl)imidazo[1,2-a]pyrazin-3-yl)pyrimidin-4-yl)piperazin-1-yl)ethan-1-one] is lower in Ki: 100 to 1000 nM for the first, 10 to 100 nM for the second.

Compared with `FC(F)(F)c1cn2c(-c3ccnc(N4CCOC(c5cn[nH]c5)C4)n3)cnc2cn1` (single isomer, unassigned) [IV-186, 2-(1H-Pyrazol-4-yl)-4-(4-(6-(trifluoromethyl)imidazo[1,2-a]pyrazin-3-yl)pyrimidin-2-yl)morpholine], `FC(F)(F)c1cn2c(-c3nccc(N4CCO[C@H](c5ccccn5)C4)n3)cnc2cn1` [IV-713] is higher in Ki: less than 10 nM for the first, 100 to 1000 nM for the second. The first binds more tightly here.

First: NC(=O)c1cn2c(-c3nccc(N4CCOCC4)n3)cnc2cn1 [IV-240]
Second: CC1CCCN(c2ccnc(-c3cnc4cnc(C(N)=O)cn34)n2)C1C (centres unmarked) [IV-264, 3-(4-(2,3-Dimethylpiperidin-1-yl)pyrimidin-2-yl)imidazo[1,2-a]pyrazine-6-carboxamide]
The Ki of the first is higher: 100 to 1000 nM for the first, less than 10 nM for the second.

Compared with `O=C(N[C@@H]1CCCN(c2ccnc(-c3cnc4cnc(C(F)(F)F)cn34)n2)C1)c1cn[nH]c1` [IV-709], `CC(C)(C)n1cc(C(=O)N[C@H]2CCCN(c3ccnc(-c4cnc5cnc(C(F)(F)F)cn45)n3)C2)nn1` [IV-750] is higher in Ki: 100 to 1000 nM for the first, greater than 1000 nM for the second. The first binds more tightly here.

`FC(F)(F)c1cn2c(-c3nccc(N4CCC(C5COC5)C4)n3)cnc2cn1` (centres unmarked) [IV-508, 3-(4-(3-(Oxetan-3-yl)pyrrolidin-1-yl)pyrimidin-2-yl)-6-(trifluoromethyl)imidazo[1,2-a]pyrazine] and `O=C1CC(C2CCCN(c3ccnc(-c4cnc5cnc(C(F)(F)F)cn45)n3)C2)CN1` (centres unmarked) [IV-663, 4-(1-(2-(6-(Trifluoromethyl)imidazo[1,2-a]pyrazin-3-yl)pyrimidin-4-yl)piperidin-3-yl)pyrrolidin-2-one] fall in the same range of Ki: 100 to 1000 nM for the first, 100 to 1000 nM for the second.

`N#CC1CCCCN1c1ccnc(-c2cnc3cnc(C(N)=O)cn23)n1` (centres unmarked) [IV-258, 3-(4-(2-Cyanopiperidin-1-yl)pyrimidin-2-yl)imidazo[1,2-a]pyrazine-6-carboxamide] and `O=S1(=O)CCN(c2ccnc(-c3cnc4cnc(C(F)F)cn34)n2)CC1` [IV-84, 4-(2-(6-(Difluoromethyl)imidazo[1,2-a]pyrazin-3-yl)pyrimidin-4-yl)thiomorpholine 1,1-dioxide] fall in the same range of Ki: 100 to 1000 nM for the first, 100 to 1000 nM for the second.

`C[C@@H]1CN(c2ccnc(-c3cnc4cnc(C(F)(F)F)cn34)n2)C[C@H](c2ccnn2C)N1` (racemic) [IV-667, Cis-3-(4-(3-Methyl-5-(1-methyl-1H-pyrazol-5-yl)piperazin-1-yl)pyrimidin-2-yl)-6-(trifluoromethyl)imidazo[1,2-a]pyrazine] showed a Ki of 100 to 1000 nM.

Same assay, conditions: compounds of Formula II; 280 μM ATP, 4 nM GCN2 kinase

`CC1CC(N=S(C)(C)=O)CN(c2cc(-c3cnc4ccc(C(F)F)nn34)ccn2)C1` (centres unmarked) [II-691, ((1-(4-(6-(Difluoromethyl)imidazo[1,2-b]pyridazin-3-yl)pyridin-2-yl)-5-methylpiperidin-3-yl)imino)dimethyl-λ^6-sulfanone] and `CC1CCN(c2cc(-c3cnc4ccc(C(F)F)nn34)ncn2)CC1N=S(C)(C)=O` (centres unmarked) [II-629, ((1-(6-(6-(Difluoromethyl)imidazo[1,2-b]pyridazin-3-yl)pyrimidin-4-yl)-4-methylpiperidin-3-yl)imino)dimethyl-λ^6-sulfanone] fall in the same range of Ki: 10 to 1000 nM for the first, 10 to 1000 nM for the second.

Work on `CC1C(CO)N(C(C)(C)C)CCN1c1cc(-c2cnc3ccc(C(F)F)nn23)ncn1` (centres unmarked) [II-556, (1-(tert-Butyl)-4-(6-(6-(difluoromethyl)imidazo[1,2-b]pyridazin-3-yl)pyrimidin-4-yl)-3-methylpiperazin-2-yl)methanol] yielded a Ki of 10 to 1000 nM.

Same assay, conditions: compounds of Formula III; 280 μM ATP, 4 nM GCN2 kinase

In the case of `CC1C(CNS(C)(=O)=O)C(F)(F)C(C)CN1c1cc(-c2cnn3ccc(C(F)F)nc23)ncn1` (centres unmarked) [III-13, N-[[1-[6-[5-(Difluoromethyl)pyrazolo[1,5-a]pyrimidin-3-yl]pyrimidin-4-yl]-4,4-difluoro-2,5-dimethyl-3-piperidyl]methyl]methanesulfonamide], the Ki is reported as less than 10 nM.
